According to patent publication US20150351380A1, “TISSUE-PRESERVING LIQUID AND TISSUE-PRESERVING METHOD” (OSAKA UNIVERSITY, priority 2012, published 2015):

Test system: luciferase transgenic rat-derived oral mucosal cell sheet
Experiment: Residual ATP level in luciferase transgenic rat-derived oral mucosal cell sheet after preservation and post-preservation culture
Format: cell-based
Conditions: tBHQ in HBSS (1 μM, 10 μM, 100 μM)
Protocol: An oral tissue of a luciferase transgenic rat (Hakamata Y, Murakami T, Kobayashi E., Transplantation 2006; 81(8): 1179-1184) was provided by Dr. Eiji Kobayashi in the Division of Development of Advanced Treatment, Jichi Medical University. The oral tissue was washed twice with DMEM (Gibco) supplemented with 1% antibiotics and antimycotics (AbAm, Gibco). The washed tissue was immersed in a solution of dispase I (1,000 PU/ml) in DMEM supplemented with 1% AbAm at 4° C. for 4 hours. After the dispase treatment, the tissue was transferred into a 0.02% EDTA solution (nacalai tesque), immersed therein at room temperature for 2 minutes, and washed twice with PBS. […]
The ATP level in a cell sheet correlates with the viability of the cell sheet. The ATP levels in a cell sheet before preservation, after preservation and after post-preservation culture were measured as an indicator of the viability of the cell sheet. […] After this, the 96-well plate was set in a luminescence microplate reader Centro LB960 (Berthold Technologies GmbH & Co. KG), and according to the device settings of the microplate reader, addition of luciferin (final concentration; 0.19 mg/ml) and measurement of the ATP level were conducted. The measurement temperature was 4° C., the single reading time was 2 seconds, and the total reading time was 12 minutes. […]

In the case of `CC(C)(C)c1cc(O)ccc1O` [tBHQ, tert-butylhydroquinone], the “residual ATP level after 7 days of preservation compared with HBSS without additive” value is reported as “higher”.
